Data taken from US20020137929A1, “1 - (3-heterocyclylphenyl) isothiourea, -isourea, -guanidine and -amidine herbicidal agents” (Intellectual Property Department, BASF Aktiengesellschaft, priority 1998, published 2002).

Legend:
[1] = tested on: GLXMAW (Soybean, Williams); assay: Postemergence herbicidal evaluation; format: in vivo, Glycine max, (L.) Merr. cv Williams
Summary of the method: (§1)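 Two-week-old seedlings sprayed with compound in 50/50 acetone/water plus 0.5% TWEEN 20, at about 0.0156 to 0.500 kg/ha, nozzle at 40 psi. Kept in greenhouse; rated visually 4-5 weeks after treatment on a 0-9 scale versus control, repeat tests averaged.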

ABUTH (Velvetleaf) [2] = assay: Preemergence herbicidal evaluation; format: in vivo, Abutilon theophrasti; conditions: rated 4-5 weeks after treatment
Summary of the method: (§2)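 In this greenhouse assay, monocot and dicot seeds are planted in soil and treated prior to emergence with an aqueous acetone spray (about 0.0156-0.500 kg/ha). Plants are assessed visually against control on a 0-9 scale after 4-5 weeks.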

SETVI (Foxtail, Green) [3] = assay: Preemergence herbicidal evaluation; format: in vivo, Setaria viridis; conditions: rated 4-5 weeks after treatment
Summary of the method: as §2

[4] = tested on: TRZAWR (Wheat, Winter, cv Riband); assay: Postemergence herbicidal evaluation; format: in vivo, Triticum aestivum
Summary of the method: as §1

[5] = tested on: SAGPY (Arrowhead (Pygmaea)); assay: Postemergence weed control under flooded paddy conditions; format: in vivo, Sagittaria pygmaea; conditions: rate 0.2500 kg/ha, postemergence weeds, 3-4 weeks after treatment
Description: Results of herbicide evaluation are expressed on a rating scale (0-9). The scale is based upon a visual observation of plant stand, vigor, malformation, size, chlorosis and overall plant appearance as compared with a control.
Plastic containers containing weeds which are 3 to 5 cm tall and rice seedlings at the 1.5 to 2.5 leaf stage are flooded with water. The water is maintained at 1.5 to 3 cm above the soil surface for the duration of the experiment. Test compounds are applied as aqueous/ acetone mixtures 50/50 v/v directly into the flood water to provide the equivalent of about 0.0313 to 0.500 kg/ha of active ingredient. The treated containers are placed on greenhouse benches and cared for in accordance with conventional greenhouse procedures. Three to four weeks after treatment, the test is terminated and each container is examined and herbicidal effect rated according to the rating system provided in Example 37. The compounds evaluated are reported by compound number given in Example 37.

AMBEL (Ragweed, Common) = assay: Postemergence herbicidal evaluation; format: in vivo, Ambrosia artemisifolia
Summary of the method: as §1

ORYSAT (Rice, Tebonnet) = assay: Postemergence herbicidal evaluation; format: in vivo, Oryza sativa, (L.) Tebonnet
Summary of the method: as §1

ABUTH (Velvetleaf) [6] = assay: Postemergence herbicidal evaluation; format: in vivo, Abutilon theophrasti
Summary of the method: as §1

CYPIR (Rice Flatsedge) = assay: Postemergence weed control under flooded paddy conditions; format: in vivo, Cyperus iria; conditions: rate 0.2500 kg/ha, postemergence weeds, 3-4 weeks after treatment
Summary of the method: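 With weeds 3 to 5 cm tall and rice at the 1.5 to 2.5 leaf stage, containers were flooded and water held 1.5 to 3 cm above soil. Compounds in 50/50 v/v aqueous/acetone went into the flood water at about 0.0313 to 0.500 kg/ha a.i. Effects were visually rated 0–9 against controls after three to four weeks in the greenhouse.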

SETVI (Foxtail, Green) [7] = assay: Postemergence herbicidal evaluation; format: in vivo, Setaria viridis
Summary of the method: as §1

ECHCG (Barnyardgrass) = assay: Postemergence herbicidal evaluation; format: in vivo, Echinochloa crus-galli
Summary of the method: as §1

[8] = tested on: SAGPY (Arrowhead (Pygmaea)); assay: Preemergence weed control under flooded paddy conditions; format: in vivo, Sagittaria pygmaea; conditions: 0.2500 kg/ha, rated 3-4 weeks after treatment
Summary of the method: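 Silt loam, seeds in top 0.5 cm; flood held 1.5-3 cm; test cpd as acetone/water 50/50 into flood water, ~0.0313-0.500 kg/ha a.i.; greenhouse 3-4 wk; visual 0-9 score vs control.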

CASOB (Sicklepod) = assay: Preemergence herbicidal evaluation; format: in vivo, Cassia obtusifolia; conditions: rated 4-5 weeks after treatment
Summary of the method: as §2

Compound: CCOC(=O)CN1C(=O)C(CC(=O)O)SC1=Nc1cc(-n2c(=O)cc(C(F)(F)F)n(C)c2=O)c(Cl)cc1Cl (stereo not drawn) [Compound 33, 2-{{2,4-Dichloro-5-[3,6-dihydro-3-methyl-2,6-dioxo-4-(trifluoromethyl)-1(2H)-pyrimidinyl]phenyl}-imino}-4-oxo-3,5-thiazolidinediacetic acid, 3-ethyl ester]
- Postemergence herbicidal rating GLXMAW ([1]; Rate 0.0158 kg/ha): 7.0
- Postemergence herbicidal rating GLXMAW ([1]; Rate 0.0315 kg/ha): 8.5
- Postemergence herbicidal rating GLXMAW ([1]; Rate 0.0630 kg/ha): 8.5
- Preemergence herbicidal rating ABUTH (ABUTH (Velvetleaf) [2]; rate 0.0156 kg/ha): 0.0
- Preemergence herbicidal rating ABUTH (ABUTH (Velvetleaf) [2]; rate 0.0313 kg/ha): 0.0
- Preemergence herbicidal rating ABUTH (ABUTH (Velvetleaf) [2]; rate 0.0625 kg/ha): 9.0
- Preemergence herbicidal rating ABUTH (ABUTH (Velvetleaf) [2]; rate 0.1250 kg/ha): 9.0
- Preemergence herbicidal rating ABUTH (ABUTH (Velvetleaf) [2]; rate 0.2500 kg/ha): 9.0
- Preemergence herbicidal rating SETVI (SETVI (Foxtail, Green) [3]; rate 0.0156 kg/ha): 0.0
- Preemergence herbicidal rating SETVI (SETVI (Foxtail, Green) [3]; rate 0.0313 kg/ha): 0.0
- Preemergence herbicidal rating SETVI (SETVI (Foxtail, Green) [3]; rate 0.0625 kg/ha): 3.0
- Preemergence herbicidal rating SETVI (SETVI (Foxtail, Green) [3]; rate 0.1250 kg/ha): 3.0
- Preemergence herbicidal rating SETVI (SETVI (Foxtail, Green) [3]; rate 0.2500 kg/ha): 9.0
- Postemergence herbicidal rating TRZAWR ([4]; Rate 0.0158 kg/ha): 3.5
- Postemergence herbicidal rating TRZAWR ([4]; Rate 0.0315 kg/ha): 5.5
- Postemergence herbicidal rating TRZAWR ([4]; Rate 0.0630 kg/ha): 6.0
- Herbicidal rating SAGPY [5]: 0.0
- Postemergence herbicidal rating AMBEL (AMBEL (Ragweed, Common); Rate 0.0158 kg/ha): 9.0
- Postemergence herbicidal rating AMBEL (AMBEL (Ragweed, Common); Rate 0.0315 kg/ha): 9.0
- Postemergence herbicidal rating AMBEL (AMBEL (Ragweed, Common); Rate 0.0630 kg/ha): 9.0
- Postemergence herbicidal rating ORYSAT (ORYSAT (Rice, Tebonnet); Rate 0.0158 kg/ha): 0.5
- Postemergence herbicidal rating ORYSAT (ORYSAT (Rice, Tebonnet); Rate 0.0315 kg/ha): 2.0
- Postemergence herbicidal rating ORYSAT (ORYSAT (Rice, Tebonnet); Rate 0.0630 kg/ha): 2.0
- Postemergence herbicidal rating ABUTH (ABUTH (Velvetleaf) [6]; Rate 0.0158 kg/ha): 9.0
- Postemergence herbicidal rating ABUTH (ABUTH (Velvetleaf) [6]; Rate 0.0315 kg/ha): 9.0
- Postemergence herbicidal rating ABUTH (ABUTH (Velvetleaf) [6]; Rate 0.0630 kg/ha): 9.0
- Herbicidal rating CYPIR (CYPIR (Rice Flatsedge)): 0.0
- Postemergence herbicidal rating SETVI (SETVI (Foxtail, Green) [7]; Rate 0.0158 kg/ha): 4.0
- Postemergence herbicidal rating SETVI (SETVI (Foxtail, Green) [7]; Rate 0.0315 kg/ha): 7.0
- Postemergence herbicidal rating SETVI (SETVI (Foxtail, Green) [7]; Rate 0.0630 kg/ha): 8.0
- Postemergence herbicidal rating ECHCG (ECHCG (Barnyardgrass); Rate 0.0158 kg/ha): 2.0
- Postemergence herbicidal rating ECHCG (ECHCG (Barnyardgrass); Rate 0.0315 kg/ha): 9.0
- Postemergence herbicidal rating ECHCG (ECHCG (Barnyardgrass); Rate 0.0630 kg/ha): 9.0
- Herbicidal rating SAGPY [8]: 0.0
- Preemergence herbicidal rating CASOB (CASOB (Sicklepod); rate 0.0156 kg/ha): 0.0
- Preemergence herbicidal rating CASOB (CASOB (Sicklepod); rate 0.0313 kg/ha): 0.0
- Preemergence herbicidal rating CASOB (CASOB (Sicklepod); rate 0.0625 kg/ha): 0.0
- Preemergence herbicidal rating CASOB (CASOB (Sicklepod); rate 0.1250 kg/ha): 4.0
- Preemergence herbicidal rating CASOB (CASOB (Sicklepod); rate 0.2500 kg/ha): 9.0
